Assay results from patent US4591590A, “Benzhydrylpiperazine derivatives, processes for the preparation thereof and pharmaceutical composition comprising the same” (Fujisawa Pharmaceutical Co., Ltd., priority 1982, dated 1986).
Where a name gives a salt, the structure may show the parent alone.

Test system: anaphylactic asthma in guinea-pigs
Experiment: Antagonism to anaphylactic asthma in guinea-pigs (passively sensitized with rabbit anti-egg albumin antiserum, egg albumin aerosol challenge; survival)
Type: in vivo, guinea-pig (male Hartley strain)
Settings: 10 mg/kg, oral, 30 minutes before egg albumin aerosol challenge; dose group 3 or 5 animals (* = 3 guinea-pigs: Examples 10-(5) and 11)
Experimental: Equal volumes of a saline solution of egg albumin (200 mg/ml) and of Freund's Complete Adjuvant were mixed and emulsified. Each male New Zealand white strain rabbits, each weighing 2 to 2.5 kg., received an intramuscular injection of 0.5 ml of the emulsion in the left and right thigh regions. One week later, they received an intradermal injection of 0.25 ml of a saline solution of egg albumin (concentration: 20 mg/ml) in the different four sites of the dorsal skin surface three times every other week. Blood samples were collected from the carotid artery one week after the last injection.
The level of anaphylactic anti-egg albumin antibodies in pools of sera were determined by passive cutaneous anaphylaxis (PCA) reactions using shaven Hartley strain test guinea-pigs.
Antiserum was serially diluted (two fold) in saline and 0.1 ml of each antiserum dilution were injected intradermally into the dorsal skin surface of the test guinea-pigs. 24 hours after intradermal sensitization,Egg albumin-specific PCA reactions were elicited by intravenous injection of 10 mg of egg albumin in 1 ml of 1% Evans blue dye dissolved in saline. Reactions were read and recorded as the highest dilution of serum evoking threshold PCA reactivity (5 mm diameter).
Male Hartley strain guinea-pigs, weighing 305 to 400 g, were used. Animals were sensitized by an intravenous injection of rabbit antiserum against egg albumin (4000 PCA titer) with 0.5 ml/animal. After 24 hours, animals were placed individually in a plastic chamber of 5.3 liter volume. An aerosol of 5% egg albumin solution was sprayed in the chamber at a rate of 0.16 ml/min with a commercial nebulizer. The test compounds were given to the animals orally 30 minutes before the challenge with the egg albumin solution. Each dose group consisted of 3 or 5 animals. The inhibitory effect of the test compounds was determined from the number of surviving animals more than 2 hours after spray of the antigen.

Structure (SMILES)	Inhibitory effect of anaphylactic asthma in guinea-pig (from number of surviving animals more than 2 hours after spray of the antigen)
CC(=O)CCCN1CCN(C(c2ccccc2)c2ccccc2)CC1.O=C(O)/C=C/C(=O)O [Example 1, 1-(4-oxo-1-pentyl)-4-benzhydrylpiperazine fumarate]	100%
Cl.Cl.O=C(NCCCN1CCN(C(c2ccccc2)c2ccccc2)CC1)c1ccccc1 [Example 7, 1-(3-benzoylaminopropyl)-4-benzhydrylpiperazine dihydrochloride]	100%
COc1ccccc1C(=O)NCCCN1CCN(C(c2ccccc2)c2ccccc2)CC1.Cl.Cl [Example 10-(2), 1-[3-(2-Methoxybenzoylamino)propyl]-4-benzhydrylpiperazine dihydrochloride]	80%
CS(=O)(=O)Nc1ccccc1C(=O)NCCCN1CCN(C(c2ccccc2)c2ccccc2)CC1 [Example 10-(5), 1-[3-(2-Methanesulfonylaminobenzoylamino)propyl]-4-benzhydrylpiperazinedihydrochloride]	100%
O=C(Cn1c(=O)sc2ccccc21)NCCCN1CCN(C(c2ccccc2)c2ccccc2)CC1 [Example 10-(8), 1-[3-[2-(2-Oxo-benzothiazolin-3-yl)acetylamino]propyl]-4-benzhydrylpiperazine]	80%
CC(=O)NCCCN1CCN(C(c2ccccc2)c2ccccc2)CC1 [Example 11, 1-(3-acetylaminopropyl)-4-benzhydrylpiperazine]	100%
CS(=O)(=O)Nc1cccc(CN2CCN(C(c3ccccc3)c3ccccc3)CC2)n1.Cl.Cl [Example 13, 1-(6-methanesulfonylaminopyridin-2-ylmethyl)-4-benzhydrylpiperazine dihydrochloride]	100%
